Results as given in BigSolDB 2.1.

CC(=O)N1CCN(c2ccc(O)cc2)CC1
solubility (mole fraction)
Conditions | 283.15 K | 288.15 K | 293.15 K | 298.15 K | 303.15 K | 308.15 K | 313.15 K | 318.15 K | 323.15 K
in 2-butoxyethanol | 0.00309 | 0.00373 | 0.00457 | 0.00537 | 0.00617 | 0.00726 | 0.00852 | 0.0102 | 0.0118
in 2-ethoxyethanol | 0.00486 | 0.0059 | 0.00705 | 0.00829 | 0.00963 | 0.0112 | 0.0134 | 0.0156 | 0.0179
in 2-methoxyethanol | 0.00715 | 0.00822 | 0.00968 | 0.0114 | 0.0133 | 0.0153 | 0.0181 | 0.0212 | 0.0242
in 2-propoxyethanol | 0.00403 | 0.00474 | 0.00574 | 0.00686 | 0.00813 | 0.00951 | 0.011 | 0.0128 | 0.015
in acetonitrile | 0.001 | 0.00124 | 0.0015 | 0.00181 | 0.00217 | 0.00259 | 0.00304 | 0.00359 | 0.00433
in ethanol | 0.00218 | 0.00273 | 0.00328 | 0.00396 | 0.00467 | 0.00551 | 0.00634 | 0.00749 | 0.00887
in ethylene glycol | 0.000479 | 0.000658 | 0.000921 | 0.00123 | 0.00167 | 0.00225 | 0.00293 | 0.00405 | 0.00538
in isobutanol | 0.00108 | 0.00141 | 0.00172 | 0.00214 | 0.00251 | 0.00292 | 0.00353 | 0.00415 | 0.00508
in isopropanol | 0.00132 | 0.00165 | 0.00204 | 0.00263 | 0.00327 | 0.00418 | 0.00526 | 0.00636 | 0.00796
in methanol | 0.00286 | 0.00346 | 0.00411 | 0.00485 | 0.00581 | 0.00679 | 0.00806 | 0.00952 | 0.0111
in n-butanol | 0.00119 | 0.00151 | 0.00186 | 0.00232 | 0.00298 | 0.00392 | 0.00488 | 0.00612 | 0.00765
in n-propanol | 0.00179 | 0.00206 | 0.00238 | 0.00306 | 0.00372 | 0.00459 | 0.00561 | 0.00683 | 0.00829
